These results are taken from ChEMBL document CHEMBL3763104, “Antibacterial and antifungal activities of 2,3-pyrrolidinedione derivatives against oral pathogens” (2016).

The test system of assay [1] is Streptococcus mutans. Briefly: Antimicrobial activity against Streptococcus mutans ATCC 35668 biofilm at 0.2 % after 1 hr by MTT assay relative to control. In kind it is functional.
Assay [2] relates to Streptococcus mutans. Briefly: Antimicrobial activity against Streptococcus mutans ATCC 35668 biofilm at 0.04 % after 1 hr by MTT assay relative to control. It is filed as functional. (Tetrazolium dyes change colour on reduction, which living cells bring about.)
Assay [3] has as its system Candida albicans. Briefly: Antimicrobial activity against Candida albicans ATCC 90028 biofilm at 1 % after 1 hr by MTT assay relative to control. It is filed as functional.
Assay [4] relates to Streptococcus mutans. Briefly: Antimicrobial activity against Streptococcus mutans ATCC 35668 biofilm at 0.008 % after 1 hr by MTT assay relative to control. It is filed as functional.
In assay [5] the test system is Streptococcus mutans. Briefly: Antimicrobial activity against Streptococcus mutans ATCC 35668 biofilm at 1 % after 1 hr by MTT assay relative to control. It is filed as functional.
Assay [6] concerns Candida albicans. Kind of assay: Antimicrobial activity against Candida albicans ATCC 90028 biofilm at 0.004 % after 1 hr by MTT assay relative to control. In kind it is functional.
In assay [7] the test system is Candida albicans. Kind of assay: Antimicrobial activity against Candida albicans ATCC 90028 biofilm at 0.2 % after 1 hr by MTT assay relative to control. It is filed as functional.
In assay [8] the test system is Candida albicans. Briefly: Antimicrobial activity against Candida albicans ATCC 90028 biofilm at 0.008 % after 1 hr by MTT assay relative to control. It is filed as functional.
The test system of assay [9] is Candida albicans. Kind of assay: Antimicrobial activity against Candida albicans ATCC 90028 biofilm after 1 hr by MTT assay. In kind it is functional, organism-based.

As for `CCOC(=O)C1=C(OCc2ccccc2)C(=O)N(C(=O)[C@@H](N)C(C)C)C1.O=C(O)C(F)(F)F`, the “inhibition (INH)” value worked out at 3.1% with Streptococcus mutans [1]; 1.2% in the assay with Streptococcus mutans [2]; 36.7% in the assay with Candida albicans [3]; 0.7% with Streptococcus mutans [4]; 47.3% in the assay on Streptococcus mutans [5]; 12.3% in the assay on Candida albicans [6]. In addition, the “inhibition (INH)” value was 11.9% in the assay on Candida albicans [7] and 18.5% in the assay with Candida albicans [8].
`CCCCCCCC/C=C/C1=C(OCc2ccccc2)C(=O)N(Cc2ccc(OC)cc2)C1`: the “inhibition (INH)” value with Streptococcus mutans [1] stood at 92.7%; in the assay with Streptococcus mutans [2], 14.1%; in the assay on Candida albicans [3], 60.8%; in the assay on Streptococcus mutans [4], 2.4%; with Streptococcus mutans [5] it was 93.2%; with Candida albicans [6], 24.5%. The “inhibition (INH)” value turned out to be 34% with Candida albicans [7] and 0.2% in the assay with Candida albicans [8]. In addition, the inhibition result in the assay on Candida albicans [9] was “Dose-dependent effect”.
On to `N=C(NCCCCCCNC(=N)NC(=N)Nc1ccc(Cl)cc1)NC(=N)Nc1ccc(Cl)cc1` [CHLORHEXIDINE], for which the “inhibition (INH)” value with Streptococcus mutans [1] was 93.6%; with Candida albicans [7], 49.9%.
On to `CCOC(=O)C1=C(O[Si](C)(C)C(C)(C)C)C(=O)N(Cc2ccc(OC)cc2)C1`, for which the “inhibition (INH)” value in the assay with Streptococcus mutans [1] turned out to be 1.8%; in the assay on Streptococcus mutans [2] it was 0.1%; in the assay with Candida albicans [3], 17%; with Streptococcus mutans [4], 1.4%; in the assay on Streptococcus mutans [5], 50.6%; with Candida albicans [6] it was 11.8%. Also, the “inhibition (INH)” value in the assay with Candida albicans [7] came to 12.2%; in the assay on Candida albicans [8], 23.5%.
As to `CCOC(=O)C1=C(OCc2ccccc2)C(=O)NC1`, the “inhibition (INH)” value is given as 4.8% with Streptococcus mutans [1]; 3% in the assay on Streptococcus mutans [2]; 43.2% with Candida albicans [3]; 1.3% in the assay with Streptococcus mutans [4]; 3.4% with Streptococcus mutans [5]; 23.2% with Candida albicans [6]. Also, the results for the “inhibition (INH)” value in the assay on Candida albicans [7] and in the assay on Candida albicans [8] were 27.9% and 9.2%, respectively. For the same compound, the inhibition entry with Candida albicans [9] was “Dose-dependent effect”.
With `CCOC(=O)C1=C(OCc2ccccc2)C(=O)N(Cc2ccc(OC)cc2)C1`, the “inhibition (INH)” value with Streptococcus mutans [1] worked out at 2.7%; in the assay on Streptococcus mutans [2] it was 5%; in the assay with Candida albicans [3], 32.3%; in the assay with Streptococcus mutans [4], 1%; in the assay with Streptococcus mutans [5], 0%; in the assay on Candida albicans [6] it was 14.7%. For the same compound, the “inhibition (INH)” value in the assay with Candida albicans [7] is on record as 23.1%; in the assay on Candida albicans [8] it was 6%. Further, the inhibition entry with Candida albicans [9] is “Dose-dependent effect”.
As for `CCOC(=O)C1=C(OC)C(=O)N(C(=O)C(NC(=O)OC(C)(C)C)C(C)C)C1` (stereo unspecified), the “inhibition (INH)” value in the assay on Streptococcus mutans [1] is 16.1%; with Streptococcus mutans [2], 9.4%; with Candida albicans [3], 30.7%; in the assay on Streptococcus mutans [4], 5%; in the assay on Streptococcus mutans [5] it was 32.6%; with Candida albicans [6], 7.8%. Besides, the results for the “inhibition (INH)” value in the assay on Candida albicans [7] and in the assay on Candida albicans [8] were 15.7% and 0%, respectively. Further, the inhibition result with Candida albicans [9] was “Dose-dependent effect”.
As for `CCOC(=O)C1=C(OCc2ccccc2)C(=O)N(C(=O)C(NC(=O)OC(C)(C)C)C(C)C)C1` (stereo unspecified), the “inhibition (INH)” value in the assay on Streptococcus mutans [1] is recorded as 48.6%; with Streptococcus mutans [2], 28%; in the assay on Candida albicans [3], 50.7%; in the assay with Streptococcus mutans [4] it was 23.1%; with Streptococcus mutans [5], 89.5%; in the assay on Candida albicans [6], 7.3%. Further, the “inhibition (INH)” value amounted to 16.7% in the assay on Candida albicans [7] and 10.1% in the assay on Candida albicans [8]. Further, the inhibition entry in the assay on Candida albicans [9] is “Dose-dependent effect”.
Consider `COc1ccc(CN2CC(CO)=C(O[Si](C)(C)C(C)(C)C)C2=O)cc1`, for which the “inhibition (INH)” value was determined as 13.3% with Streptococcus mutans [1]; 15.4% in the assay with Streptococcus mutans [2]; 1% with Candida albicans [3]; 11.4% in the assay on Streptococcus mutans [4]; 19.1% in the assay with Streptococcus mutans [5]; 19.4% in the assay with Candida albicans [6]. Further, the figures for the “inhibition (INH)” value with Candida albicans [7] and in the assay on Candida albicans [8] were 21.3% and 4.5%, respectively.
For `COc1ccc(CN2CC(CO)=C(OCc3ccccc3)C2=O)cc1`, the “inhibition (INH)” value in the assay on Streptococcus mutans [1] was determined as 2.8%; in the assay with Streptococcus mutans [2], 4.5%; in the assay with Candida albicans [3], 36.1%; in the assay on Streptococcus mutans [4], 0%; in the assay on Streptococcus mutans [5], 5%; in the assay on Candida albicans [6], 6.3%. In addition, the “inhibition (INH)” value in the assay on Candida albicans [7] worked out at 20.9%; in the assay with Candida albicans [8], 7.5%. In addition, the inhibition entry in the assay on Candida albicans [9] was “Dose-dependent effect”.
Regarding `CCCCCCCCCCC1=C(O[Si](C)(C)C(C)(C)C)C(=O)N(Cc2ccc(OC)cc2)C1`, the “inhibition (INH)” value with Streptococcus mutans [1] is 3.4%; in the assay with Streptococcus mutans [2] it was 4.3%; in the assay with Candida albicans [3], 31.6%; with Streptococcus mutans [4] it was 10.7%; in the assay with Streptococcus mutans [5], 0%; with Candida albicans [6], 9%. Moreover, the “inhibition (INH)” value was 1.9% in the assay with Candida albicans [7] and 12.1% with Candida albicans [8].
As to `CCOC(=O)C1=C(O)C(=O)N(Cc2ccc(OC)cc2)C1`, the “inhibition (INH)” value with Streptococcus mutans [1] worked out at 51.3%; in the assay on Streptococcus mutans [2], 3.4%; in the assay on Candida albicans [3] it was 45.5%; in the assay on Streptococcus mutans [4], 0%; in the assay on Streptococcus mutans [5], 25.6%; with Candida albicans [6] it was 17.2%. In addition, the “inhibition (INH)” value in the assay on Candida albicans [7] is 10.7%; with Candida albicans [8], 19.8%.
